Data from the NIST ThermoML archive (doi:10.1016/j.fluid.2016.02.030).

Test: osmotic coefficient (dimensionless); mn = molality of the nth substance listed, in mol/kg
Conditions: 308.15 K, Liquid, omometer

O=C[C@H](O)[C@@H](O)[C@@H](O)CO [L-arabinose] + O
Conditions	osmotic coefficient
m1 = 0.0332	0.9993
m1 = 0.0672	0.9973
m1 = 0.1346	0.9965
m1 = 0.2071	0.995
m1 = 0.2766	0.9956
m1 = 0.3435	0.9951
m1 = 0.4151	0.9944
m1 = 0.4952	0.9947
m1 = 0.5785	0.9949
m1 = 0.6498	0.9944
m1 = 0.8204	0.9948
m1 = 0.9055	0.9945
m1 = 1.041	0.9945
m1 = 1.177	0.9944
m1 = 1.313	0.9942
m1 = 1.659	0.995
m1 = 2.402	1.002
m1 = 3.272	1.016

O=C[C@H](O)[C@@H](O)[C@@H](O)[C@H](O)CO [(+)-galactose] + O
Conditions	osmotic coefficient
m1 = 0.0558	0.9999
m1 = 0.1149	1.001
m1 = 0.1727	1.004
m1 = 0.2306	1.003
m1 = 0.2878	1.004
m1 = 0.3548	1.006
m1 = 0.4098	1.006
m1 = 0.4829	1.007
m1 = 0.5526	1.008
m1 = 0.6174	1.008
m1 = 0.6818	1.009
m1 = 0.7847	1.01
m1 = 0.8958	1.011
m1 = 1.009	1.012
m1 = 1.138	1.013
m1 = 1.308	1.016
m1 = 1.85	1.025
m1 = 2.61	1.045

O=C[C@H](O)[C@@H](O)[C@H](O)[C@H](O)CO [D-glucose] + O
Conditions	osmotic coefficient
m1 = 0.0557	1.002
m1 = 0.1126	1.005
m1 = 0.1685	1.004
m1 = 0.2236	1.004
m1 = 0.2913	1.004
m1 = 0.3539	1.005
m1 = 0.4081	1.006
m1 = 0.4775	1.006
m1 = 0.5382	1.006
m1 = 0.5708	1.008
m1 = 0.6209	1.008
m1 = 0.6815	1.008
m1 = 0.7347	1.009
m1 = 0.7963	1.009
m1 = 0.9085	1.01
m1 = 1.019	1.012
m1 = 1.109	1.014
m1 = 1.215	1.015
m1 = 1.323	1.017
m1 = 1.569	1.022
m1 = 1.841	1.03
m1 = 2.386	1.044
m1 = 2.945	1.061
m1 = 3.626	1.078
m1 = 4.847	1.11

O=C[C@H](O)[C@@H](O)[C@H](O)CO [D-xylose] + O
Conditions	osmotic coefficient
m1 = 5.333	1.007
m1 = 5.362	1.002
m1 = 5.4	0.9966
m1 = 5.435	0.9919
m1 = 5.468	0.9881
m1 = 5.502	0.987
m1 = 5.516	0.9868
m1 = 5.53	0.9859
m1 = 5.542	0.9858
m1 = 5.551	0.9857
m1 = 5.559	0.9852
m1 = 5.566	0.9853
m1 = 5.574	0.985
m1 = 5.582	0.9853
m1 = 5.59	0.9852
m1 = 5.598	0.9866
m1 = 5.604	0.9869
m1 = 5.611	0.9874
m1 = 5.619	0.9894
m1 = 5.625	0.997

OC[C@@H](O)[C@H](O)[C@@H](O)CO [xylitol] + O
Conditions	osmotic coefficient
m1 = 0.0663	1.002
m1 = 0.1332	1.002
m1 = 0.2029	1.002
m1 = 0.2718	1.002
m1 = 0.3466	1.003
m1 = 0.4199	1.004
m1 = 0.495	1.005
m1 = 0.5643	1.005
m1 = 0.6343	1.005
m1 = 0.7296	1.006
m1 = 0.792	1.007
m1 = 0.8908	1.008
m1 = 0.9999	1.011
m1 = 1.143	1.012
m1 = 1.297	1.015
m1 = 1.474	1.017
m1 = 2.027	1.026
m1 = 2.646	1.036
m1 = 3.289	1.042
m1 = 4.413	1.048

OC[C@H]1O[C@H](OC[C@H]2O[C@H](O[C@]3(CO)O[C@H](CO)[C@@H](O)[C@@H]3O)[C@H](O)[C@@H](O)[C@@H]2O)[C@H](O)[C@@H](O)[C@H]1O [D-raffinose] + O
Conditions	osmotic coefficient
m1 = 0.0343	1.002
m1 = 0.1059	1.025
m1 = 0.1837	1.04
m1 = 0.2667	1.062
m1 = 0.3581	1.083
m1 = 0.4515	1.117
m1 = 0.4902	1.134
m1 = 0.6205	1.168

O=C(CO)[C@@H](O)[C@H](O)[C@H](O)CO [D-fructose] + O
Conditions	osmotic coefficient
m1 = 0.0559	0.9986
m1 = 0.1125	0.9958
m1 = 0.1714	0.9944
m1 = 0.2296	0.9949
m1 = 0.2923	0.9947
m1 = 0.3466	0.9945
m1 = 0.4185	0.9946
m1 = 0.4792	0.9949
m1 = 0.5468	0.9947
m1 = 0.614	0.9951
m1 = 0.6925	0.9951
m1 = 0.7872	0.9955
m1 = 0.9018	0.995
m1 = 1.022	0.9947
m1 = 1.139	0.9949
m1 = 1.266	0.9949
m1 = 1.741	0.9972
m1 = 2.401	1.006
m1 = 2.95	1.014
m1 = 3.625	1.027
m1 = 5.424	1.069

O=C[C@H](O)[C@H](O)[C@H](O)CO [D-ribose] + O
Conditions	osmotic coefficient
m1 = 0.0338	0.9992
m1 = 0.0672	0.988
m1 = 0.1353	0.9826
m1 = 0.2041	0.9786
m1 = 0.2789	0.9769
m1 = 0.3505	0.9753
m1 = 0.4242	0.9745
m1 = 0.499	0.9743
m1 = 0.5801	0.9736
m1 = 0.6538	0.9734
m1 = 0.7165	0.973
m1 = 0.7426	0.9732
m1 = 0.8289	0.973
m1 = 0.9054	0.9732
m1 = 1.038	0.9735
m1 = 1.183	0.9735
m1 = 1.453	0.9745
m1 = 1.988	0.9774
m1 = 2.594	0.9857
m1 = 3.266	0.9944

OC[C@@H](O)[C@@H](O)[C@H](O)[C@@H](O)CO [D-sorbitol] + O
Conditions	osmotic coefficient
m1 = 0.0278	0.9979
m1 = 0.0558	1.001
m1 = 0.111	0.9992
m1 = 0.1676	1.003
m1 = 0.2296	1.002
m1 = 0.2892	1.004
m1 = 0.3523	1.003
m1 = 0.4124	1.004
m1 = 0.4781	1.003
m1 = 0.5436	1.003
m1 = 0.6109	1.003
m1 = 0.6764	1.003
m1 = 0.7778	1.003
m1 = 0.8812	1.004
m1 = 0.9996	1.004
m1 = 1.112	1.006
m1 = 1.284	1.008
m1 = 1.723	1.013
m1 = 2.342	1.027
m1 = 2.956	1.041
m1 = 3.645	1.057

O=C[C@H](O)[C@@H](O)[C@H](O[C@@H]1O[C@H](CO)[C@H](O)[C@H](O)[C@H]1O)[C@H](O)CO [4-O-β-D-galactopyranosyl-D-glucose] + O
Conditions	osmotic coefficient
m1 = 0.014	0.9946
m1 = 0.0578	1.011
m1 = 0.1025	1.022
m1 = 0.1286	1.03
m1 = 0.1795	1.046
m1 = 0.2313	1.058
m1 = 0.2909	1.065
m1 = 0.3217	1.067

O=C[C@@H](O)[C@@H](O)[C@H](O)[C@H](O)CO [D-mannose] + O
Conditions	osmotic coefficient
m1 = 0.1128	0.9933
m1 = 0.2298	0.989
m1 = 0.3533	0.984
m1 = 0.4798	0.9828
m1 = 0.6097	0.9824
m1 = 0.7659	0.9832
m1 = 0.9375	0.9836
m1 = 1.117	0.9842
m1 = 1.304	0.9852
m1 = 1.829	0.9903
m1 = 2.544	0.9978
m1 = 3.659	1.017

OC[C@H]1O[C@@](CO)(O[C@H]2O[C@H](CO)[C@@H](O)[C@H](O)[C@H]2O)[C@@H](O)[C@@H]1O [D-sucrose] + O
Conditions	osmotic coefficient
m1 = 0.0296	0.9997
m1 = 0.0581	1.001
m1 = 0.0904	1.008
m1 = 0.1209	1.013
m1 = 0.1534	1.017
m1 = 0.1988	1.019
m1 = 0.2535	1.025
m1 = 0.3157	1.028
m1 = 0.3938	1.032
m1 = 0.477	1.035
m1 = 0.5567	1.039
m1 = 0.5822	1.04
m1 = 0.648	1.042
m1 = 0.7265	1.047
m1 = 0.8492	1.053
m1 = 0.971	1.058
m1 = 1.087	1.065
m1 = 1.186	1.067
m1 = 1.275	1.074
m1 = 1.996	1.149
m1 = 2.679	1.202
m1 = 3.412	1.248
m1 = 3.927	1.276

OC[C@@H](O)[C@@H](O[C@H]1O[C@H](CO)[C@@H](O)[C@H](O)[C@H]1O)[C@H](O)[C@@H](O)CO [4-O-α-D-glucopyranosyl-D-glucitol] + O
Conditions	osmotic coefficient
m1 = 0.0292	0.9903
m1 = 0.1187	0.9976
m1 = 0.219	1.012
m1 = 0.3226	1.019
m1 = 0.4282	1.028
m1 = 0.5127	1.031
m1 = 0.5925	1.032
m1 = 0.774	1.049
m1 = 0.9158	1.06
m1 = 1.054	1.067
m1 = 1.261	1.081
m1 = 1.918	1.151
m1 = 2.645	1.217
m1 = 3.591	1.272
